Laboratory results reported in patent US20230118577A1, “NEUROACTIVE STEROIDS AND PHARMACEUTICAL COMPOSITION CONTAINING THE SAME” (Brii Biosciences, Inc., priority 2020, published 2023).

Assays:
GABAA α1β2γ2 = target: T1, GABAA α1β2γ2 (Homo sapiens, UniProt P14867+P47870); assay: Automated patch clamp electrophysiology (SyncroPatch), PAM mode, GABAA α1β2γ2 cell line; type: cell-based; details: PAM mode; for EC50: HEK293 cells expressing human GABAA α1β2γ2, GABA EC20 14 μM, read-out: GABAA α1β2γ2 PAM EC50; for Emax: maximum fold increase in current relative to Allopregnanolone, GABA EC20 14 μM, read-out: GABAA α1β2γ2 PAM % Emax (to Allo)
T1 construct: expressed in transfected cells; host or cells: HEK293 expressing the Tetracycline repressor protein
Description: (§1) Cellular electrophysiology was used to measure the pharmacology properties of the GABA receptor modulators. The GABAA channels are expressed in stable cell lines described herein. The parental cell line used to express the human GABAA channels is the human embryonic kidney (HEK293) cell line expressing the Tetracycline repressor protein to support inducible expression of the target proteins.
(§2) For the GABAA α4β3δ cell line, the α4 and β3 subunits are under control of tetracycline inducible expression system, while the δ subunit is constitutively expressed. For the GABAA α1β2γ2 cell line, the α1 and β2 subunits are under control of tetracycline inducible expression system, whist the γ2 subunit is constitutively expressed.
(§3) Assessment of the compounds against GABAA α1β2γ2 and GABAA α4β3δ was performed using the SyncroPatch automated platform in positive allosteric modulator (PAM) mode. Six concentrations of 20 nM, 62 nM, 185 nM, 555 nM, 1667 nM and 5000 nM were tested across the plate, with a single concentration of compound per well. A minimum of 3 cells were obtained per each concentration of a compound.
(§4) Automated patch clamp-recordings were performed using the SyncroPatch 384PE. The voltage protocol generation and data collection were performed with PatchController384 V1.6.6 and Data Controller V1.6.0. A steady state voltage pulse at −80 mV was applied during the assay.
(§5) The stacked addition protocol was used, in which γ-aminobutyric acid (GABA) was rapidly applied and then washed off from the cell. To test for positive allosteric modulator activity (PAM), first the agonist GABA EC20 (EC20: 10 μM for GABAA α4β3δ channel and 14 μM GABA for the GABAA α1β2γ2 channel) was applied twice (with wash steps in-between) as a control and to show activation reproducibility, followed by a 1-2 minutes pre-incubation of the tested compound and then re-application of GABA EC20 in the presence of a testing compound. Finally, following a further wash step, maximum GABA (10 mM) was applied.
(§6) An Allopregnanolone concentration response was tested as the control PAM on the compound plates. The fold increase was generated using the following equation, (Icomp/Icontrol)−1, where Icomp is the current amplitude in the presence of the compound and Icontrol is the current amplitude in the presence of GABA EC20 alone. This builds an EC50 concentration-response curve, where 0 represents no PAM activity and >0 represents PAM activity.
(§7) A maximum % Emax for each compound is generated using the following equation, (IMaxComp/IAveMaxAllo)*100, where IMaxcomp is the individual maximum fold increase in current for each compound and IAveMaxAllo is the average maximum fold increase generated in the presence of Allopregnanolone. The resultant % Emax values are then averaged. The compound and Allopregnanolone values were obtained from separate cells which were tested in the same compound run. Two GABAA subtypes were tested against each of the compounds as well as the positive control, Allopregnanolone.

GABAA α4β3δ = target: T2, GABAA α4β3δ (Homo sapiens, UniProt P28472+P48169); assay: Automated patch clamp electrophysiology (SyncroPatch), PAM mode, GABAA α4β3δ cell line; type: cell-based; details: PAM mode, GABA EC20 10 μM; for EC50: HEK293 cells expressing human GABAA α4β3δ, read-out: GABAA α4β3δ PAM EC50; for Emax: maximum fold increase in current relative to Allopregnanolone, read-out: GABAA α4β3δ PAM % Emax (to Allo)
T2 construct: expressed in transfected cells; host or cells: HEK293 expressing the Tetracycline repressor protein
Description: as §1, §2, §3, §4, §5, §6, §7

T1 sequence (P14867 28-456): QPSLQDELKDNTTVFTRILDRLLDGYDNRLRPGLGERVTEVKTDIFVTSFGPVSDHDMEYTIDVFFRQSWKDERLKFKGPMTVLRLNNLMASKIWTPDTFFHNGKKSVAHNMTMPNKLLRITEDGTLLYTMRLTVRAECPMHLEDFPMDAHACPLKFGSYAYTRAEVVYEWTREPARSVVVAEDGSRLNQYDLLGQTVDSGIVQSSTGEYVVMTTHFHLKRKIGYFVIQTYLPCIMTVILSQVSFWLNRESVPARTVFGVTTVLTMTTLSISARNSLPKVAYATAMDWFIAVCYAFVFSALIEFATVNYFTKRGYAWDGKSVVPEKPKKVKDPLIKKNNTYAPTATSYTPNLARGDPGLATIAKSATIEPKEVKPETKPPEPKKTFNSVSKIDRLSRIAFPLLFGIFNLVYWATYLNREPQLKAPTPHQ
T1 sequence (P47870 25-512 limits assumed): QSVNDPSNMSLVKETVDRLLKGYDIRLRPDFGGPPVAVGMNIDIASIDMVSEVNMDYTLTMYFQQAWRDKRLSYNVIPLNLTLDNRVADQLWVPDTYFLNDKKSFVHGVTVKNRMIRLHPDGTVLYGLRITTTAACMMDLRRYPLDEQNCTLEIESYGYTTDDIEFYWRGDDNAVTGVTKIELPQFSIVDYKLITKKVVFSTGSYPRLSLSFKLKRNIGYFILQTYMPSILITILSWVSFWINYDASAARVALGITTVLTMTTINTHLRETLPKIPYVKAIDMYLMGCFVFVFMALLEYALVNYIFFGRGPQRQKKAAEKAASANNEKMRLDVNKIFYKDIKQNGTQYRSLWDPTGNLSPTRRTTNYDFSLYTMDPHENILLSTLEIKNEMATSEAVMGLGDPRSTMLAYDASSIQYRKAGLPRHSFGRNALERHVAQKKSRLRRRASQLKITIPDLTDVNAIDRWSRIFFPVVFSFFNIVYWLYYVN
T1 sequence (P18507 40-475 partner): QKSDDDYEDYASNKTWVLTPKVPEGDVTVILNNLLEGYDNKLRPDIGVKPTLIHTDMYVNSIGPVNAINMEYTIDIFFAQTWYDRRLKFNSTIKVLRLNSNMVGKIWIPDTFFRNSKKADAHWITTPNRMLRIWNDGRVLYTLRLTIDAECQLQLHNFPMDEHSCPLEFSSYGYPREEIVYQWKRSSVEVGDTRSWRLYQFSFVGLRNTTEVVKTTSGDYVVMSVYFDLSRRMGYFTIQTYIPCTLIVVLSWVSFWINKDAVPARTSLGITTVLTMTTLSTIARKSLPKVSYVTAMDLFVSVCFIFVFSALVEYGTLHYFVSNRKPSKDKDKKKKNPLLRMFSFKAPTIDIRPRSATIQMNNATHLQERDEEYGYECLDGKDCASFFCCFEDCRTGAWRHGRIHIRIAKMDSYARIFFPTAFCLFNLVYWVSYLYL
T2 sequence (P48169 36-554): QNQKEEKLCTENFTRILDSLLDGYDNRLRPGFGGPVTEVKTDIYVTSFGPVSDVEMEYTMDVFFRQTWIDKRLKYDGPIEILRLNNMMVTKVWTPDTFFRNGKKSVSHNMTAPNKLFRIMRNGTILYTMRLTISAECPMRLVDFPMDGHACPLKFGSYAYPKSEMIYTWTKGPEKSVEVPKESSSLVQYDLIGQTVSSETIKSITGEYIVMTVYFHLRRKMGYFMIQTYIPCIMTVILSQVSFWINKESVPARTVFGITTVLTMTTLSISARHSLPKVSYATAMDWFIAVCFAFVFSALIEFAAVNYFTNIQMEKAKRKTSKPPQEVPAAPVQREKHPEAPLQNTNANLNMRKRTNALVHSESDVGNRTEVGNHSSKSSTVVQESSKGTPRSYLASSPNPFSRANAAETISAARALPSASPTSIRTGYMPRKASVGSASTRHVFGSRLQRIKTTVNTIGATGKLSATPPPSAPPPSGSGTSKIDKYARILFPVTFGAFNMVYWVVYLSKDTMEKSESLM
T2 sequence (P28472 26-473): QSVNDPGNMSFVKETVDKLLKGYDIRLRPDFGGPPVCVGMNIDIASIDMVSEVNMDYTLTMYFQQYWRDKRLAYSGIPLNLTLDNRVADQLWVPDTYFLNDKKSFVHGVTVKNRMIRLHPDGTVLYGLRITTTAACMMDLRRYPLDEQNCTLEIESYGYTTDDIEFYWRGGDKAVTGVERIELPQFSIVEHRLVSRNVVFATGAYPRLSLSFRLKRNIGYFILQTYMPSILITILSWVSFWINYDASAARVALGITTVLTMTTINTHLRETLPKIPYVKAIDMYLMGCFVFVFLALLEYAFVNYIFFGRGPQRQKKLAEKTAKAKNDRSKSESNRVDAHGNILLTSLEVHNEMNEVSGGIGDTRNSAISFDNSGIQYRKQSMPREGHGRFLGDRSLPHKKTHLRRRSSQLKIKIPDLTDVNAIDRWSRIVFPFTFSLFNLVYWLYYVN
T2 sequence (O14764 17-452 partner limits assumed): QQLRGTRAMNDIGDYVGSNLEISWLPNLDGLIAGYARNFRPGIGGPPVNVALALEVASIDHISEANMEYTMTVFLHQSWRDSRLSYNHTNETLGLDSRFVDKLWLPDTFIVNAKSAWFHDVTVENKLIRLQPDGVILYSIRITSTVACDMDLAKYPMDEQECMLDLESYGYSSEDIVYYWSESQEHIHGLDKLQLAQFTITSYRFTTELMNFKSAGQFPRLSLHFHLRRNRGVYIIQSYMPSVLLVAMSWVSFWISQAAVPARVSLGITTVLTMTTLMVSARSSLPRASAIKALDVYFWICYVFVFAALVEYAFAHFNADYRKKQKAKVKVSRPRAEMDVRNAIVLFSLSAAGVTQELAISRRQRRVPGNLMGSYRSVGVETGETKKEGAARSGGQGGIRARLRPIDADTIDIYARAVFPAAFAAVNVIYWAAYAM

| SMILES | EC50 (GABAA α1β2γ2) | Emax (GABAA α1β2γ2) | EC50 (GABAA α4β3δ) | Emax (GABAA α4β3δ) |
| --- | --- | --- | --- | --- |
| CC1([C@H]2CC[C@H]3[C@@H]4CC[C@H]5C[C@](C)(O)CC[C@]5(C)[C@H]4CC[C@]23C)COC1 [Example 1, (3R,5S,8R,9S,10S,13S,14S,17S)-3,10,13-trimethyl-17-(3-methyloxetan-3-yl)-1,2,4,5,6,7,8,9,11,12,14,15,16,17-tetradecahydrocyclopenta[a]phenanthren-3-ol] | 500 to 1000 nM | < 50% | > 1500 nM | < 50% |
| CC1([C@H]2CC[C@H]3[C@@H]4CC[C@@H]5C[C@](C)(O)CC[C@@H]5[C@H]4CC[C@]23C)COC1 [Example 2, (3R,5R,8R,9R,10S,13S,14S,17S)-3,13-dimethyl-17-(3-methyloxetan-3-yl)-2,4,5,6,7,8,9,10,11,12,14,15,16,17-tetradecahydro-1H-cyclopenta[a]phenanthren-3-ol] | 1000 to 1500 nM | > 90% | < 500 nM | > 90% |
| CC1([C@H]2CC[C@H]3[C@@H]4CC[C@H]5C[C@H](O)CC[C@]5(C)[C@H]4CC[C@]23C)CCO1 (stereo partly drawn) [Example 3, (3R,5S,8R,9S,10S,13S,14S,17S)-10,13-dimethyl-17-(2-methyloxetan-2-yl)-2,3,4,5,6,7,8,9,11,12,14,15,16,17-tetradecahydro-1H-cyclopenta[a]phenanthren-3-ol] | 1000 to 1500 nM | < 50% | 1000 to 1500 nM | < 50% |
| CC1([C@H]2CC[C@H]3[C@@H]4CC[C@H]5C[C@H](O)CC[C@]5(C)[C@H]4CC[C@]23C)COC1 [Example 5, (3R,5S,8R,9S,10S,13S,14S,17S)-10,13-dimethyl-17-(3-methyloxetan-3-yl)-2,3,4,5,6,7,8,9,11,12,14,15,16,17-tetradecahydro-1H-cyclopenta[a]phenanthren-3-ol] | 500 to 1000 nM | 50 to 90% | > 1500 nM | < 50% |
| CC1([C@H]2CC[C@H]3[C@@H]4CC[C@@H]5C[C@H](O)CC[C@]5(C)[C@H]4CC[C@]23C)COC1 [Example 6, (3R,5R,8R,9S,10S,13S,14S,17S)-10,13-dimethyl-17-(3-methyloxetan-3-yl)-2,3,4,5,6,7,8,9,11,12,14,15,16,17-tetradecahydro-1H-cyclopenta[a]phenanthren-3-ol] | < 500 nM | > 90% | 1000 to 1500 nM | > 90% |
| CC1([C@H]2CC[C@H]3[C@@H]4CC[C@@H]5C[C@](C)(O)CC[C@@H]5[C@H]4CC[C@]23C)CCOC1 (stereo partly drawn) [Example 7, (3R,5R,8R,9R,10S,13S,14S,17S)-3,13-dimethyl-17-(3-methyltetrahydrofuran-3-yl)-2,4,5,6,7,8,9,10,11,12,14,15,16,17-tetradecahydro-1H-cyclopenta[a]phenanthren-3-ol] | 500 to 1000 nM | > 90% | 500 to 1000 nM | > 90% |
| C[C@@]1(O)CC[C@H]2[C@H](CC[C@@H]3[C@@H]2CC[C@]2(C)[C@@H](C4(CC5CC5)COC4)CC[C@@H]32)C1 [Example 9, (3R,5R,8R,9R,10S,13S,14S,17S)-17-[3-(cyclopropylmethyl)oxetan-3-yl]-3,13-dimethyl-2,4,5,6,7,8,9,10,11,12,14,15,16,17-tetradecahydro-1H-cyclopenta[a]phenanthren-3-ol] | < 500 nM | 50 to 90% | > 1500 nM | > 90% |
| C[C@@]1(O)CC[C@H]2[C@H](CC[C@@H]3[C@@H]2CC[C@]2(C)[C@@H](C4(F)COC4)CC[C@@H]32)C1 [Example 10, (3R,5R,8R,9R,10S,13S,14S,17S)-17-(3-fluorooxetan-3-yl)-3,13-dimethyl-2,4,5,6,7,8,9,10,11,12,14,15,16,17-tetradecahydro-1H-cyclopenta[a]phenanthren-3-ol] | < 500 nM | > 90% | < 500 nM | > 90% |
| C[C@@]1(O)CC[C@H]2[C@H](CC[C@@H]3[C@@H]2CC[C@]2(C)[C@@H](C4(CC#N)COC4)CC[C@@H]32)C1 [Example 13, 2-[3-[(3R,5R,8R,9R,10S,13S,14S,17S)-3-hydroxy-3,13-dimethyl-2,4,5,6,7,8,9,10,11,12,14,15,16,17-tetradecahydro-1H-cyclopenta[a]phenanthren-17-yl]oxetan-3-yl]acetonitrile] | 1000 to 1500 nM | > 90% | 1000 to 1500 nM | < 50% |
| C[C@@]1(O)CC[C@H]2[C@H](CC[C@@H]3[C@@H]2CC[C@]2(C)[C@@H](C4(CF)COC4)CC[C@@H]32)C1 [Example 14, (3R,5R,8R,9R,10S,13S,14S,17S)-17-[3-(fluoromethyl)oxetan-3-yl]-3,13-dimethyl-2,4,5,6,7,8,9,10,11,12,14,15,16,17-tetradecahydro-1H-cyclopenta[a]phenanthren-3-ol] | 1000 to 1500 nM | > 90% | 500 to 1000 nM | 50 to 90% |
| C[C@@]1(O)CC[C@H]2[C@H](CC[C@@H]3[C@@H]2CC[C@]2(C)[C@@H](C4(Cn5cc(C#N)cn5)COC4)CC[C@@H]32)C1 [Example 15, 1-[[3-[(3R,5R,8R,9R,10S,13S,14S,17S)-3-hydroxy-3,13-dimethyl-2,4,5,6,7,8,9,10,11,12,14,15,16,17-tetradecahydro-1H-cyclopenta[a]phenanthren-17-yl]oxetan-3-yl]methyl]pyrazole-4-carbonitrile] | < 500 nM | > 90% | > 1500 nM | > 90% |
| C[C@@]1(O)CC[C@H]2[C@H](CC[C@@H]3[C@@H]2CC[C@]2(C)[C@@H](C4(C#N)COC4)CC[C@@H]32)C1 [Example 18, 3-((3R,5R,8R,9R,10S,13S,14S,17S)-3-hydroxy-3,13-dimethyl-2,4,5,6,7,8,9,10,11,12,14,15,16,17-tetradecahydro-1H-cyclopenta[a]phenanthren-17-yl)oxetane-3-carbonitrile] | < 500 nM | > 90% | < 500 nM | 50 to 90% |
| C[C@@]1(O)CC[C@H]2[C@H](CC[C@@H]3[C@@H]2CC[C@]2(C)[C@@H](C4(C(F)F)COC4)CC[C@@H]32)C1 [Example 19, (3R,5R,8R,9R,10S,13S,14S,17S)-17-[3-(difluoromethyl)oxetan-3-yl]-3,13-dimethyl-2,4,5,6,7,8,9,10,11,12,14,15,16,17-tetradecahydro-1H-cyclopenta[a]phenanthren-3-ol] | < 500 nM | > 90% | < 500 nM | > 90% |
| C[C@@]1(O)CC[C@H]2[C@H](CC[C@@H]3[C@@H]2CC[C@]2(C)[C@@H](C4(CC(F)(F)F)COC4)CC[C@@H]32)C1 [Example 20, (3R,5R,8R,9R,10S,13S,14S,17S)-3,13-dimethyl-17-(3-(2,2,2-trifluoroethyl)oxetan-3-yl)-2,4,5,6,7,8,9,10,11,12,14,15,16,17-tetradecahydro-1H-cyclopenta[a]phenanthren-3-ol] | < 500 nM | > 90% | < 500 nM | > 90% |
| C[C@@]1(O)CC[C@H]2[C@H](CC[C@@H]3[C@@H]2CC[C@]2(C)[C@@H](C4(C5CC5)COC4)CC[C@@H]32)C1 [Example 21, (3R,5R,8R,9R,10S,13S,14S,17S)-17-(3-cyclopropyloxetan-3-yl)-3,13-dimethyl-2,4,5,6,7,8,9,10,11,12,14,15,16,17-tetradecahydro-1H-cyclopenta[a]phenanthren-3-ol] | 500 to 1000 nM | > 90% | > 1500 nM | > 90% |
